Source: ChEMBL document CHEMBL4138309, “Discovery of β-Adrenergic Receptors Blocker-Carbonic Anhydrase Inhibitor Hybrids for Multitargeted Antiglaucoma Therapy” (J Med Chem, 2018)
The source made the active and inactive calls. The calls are words filed in the database; no cut-off is given here.

Assays:
[1] = target: Carbonic anhydrase 9 (Homo sapiens, UniProt Q16790)
[2] = tested on: Oryctolagus cuniculus; assay: Anti-glaucoma activity in hypertonic saline-induced hypertensive New Zealand albino rabbit model assessed as decrease in intraocular pressure at 1% instilled into eye vitreous measured at 60 mins post administration by pneumatonometric analysis relative to DRZ + timolol (1% + 0.25%); assay type: functional, organism-based
[3] = target: Beta-1 adrenergic receptor (Homo sapiens, UniProt P08588); assay: biochemical
[4] = target: Beta-2 adrenergic receptor (Homo sapiens, UniProt P07550); assay: Displacement of [3H]-CGP12177 from human beta2 ADR expressed in HEK293T cell membrane after 90 mins by scintillation counting
[5] = tested on: Oryctolagus cuniculus; assay: Anti-glaucoma activity in hypertonic saline-induced hypertensive New Zealand albino rabbit model assessed as decrease in intraocular pressure at 1% instilled into eye vitreous measured at 4 hrs post administration by pneumatonometric analysis; assay type: functional
[6] = tested on: Oryctolagus cuniculus; assay: Anti-glaucoma activity in hypertonic saline-induced hypertensive New Zealand albino rabbit model assessed as decrease in intraocular pressure at 0.25% instilled into eye vitreous along with 1% DRZ measured at 4 hrs post administration by pneumatonometric analysis; assay type: functional, organism-based
[7] = tested on: Oryctolagus cuniculus; assay: Anti-glaucoma activity in hypertonic saline-induced hypertensive New Zealand albino rabbit model assessed as decrease in intraocular pressure at 0.25% instilled into eye vitreous measured at 60 mins post administration by pneumatonometric analysis; assay type: functional
[8] = tested on: Oryctolagus cuniculus; assay: Anti-glaucoma activity in hypertonic saline-induced hypertensive New Zealand albino rabbit model assessed as decrease in intraocular pressure at 0.25% instilled into eye vitreous measured at 2 hrs post administration by pneumatonometric analysis; assay type: functional
[9] = tested on: Oryctolagus cuniculus; assay: Anti-glaucoma activity in hypertonic saline-induced hypertensive New Zealand albino rabbit model assessed as decrease in intraocular pressure at 0.25% instilled into eye vitreous along with 1% DRZ measured at 2 hrs post administration by pneumatonometric analysis; assay type: functional
[10] = tested on: Oryctolagus cuniculus; assay: Anti-glaucoma activity in hypertonic saline-induced hypertensive New Zealand albino rabbit model assessed as decrease in intraocular pressure at 0.25% instilled into eye vitreous measured at 4 hrs post administration by pneumatonometric analysis; assay type: functional, organism-based

Chain of Beta-2 adrenergic receptor (P07550 whole entry): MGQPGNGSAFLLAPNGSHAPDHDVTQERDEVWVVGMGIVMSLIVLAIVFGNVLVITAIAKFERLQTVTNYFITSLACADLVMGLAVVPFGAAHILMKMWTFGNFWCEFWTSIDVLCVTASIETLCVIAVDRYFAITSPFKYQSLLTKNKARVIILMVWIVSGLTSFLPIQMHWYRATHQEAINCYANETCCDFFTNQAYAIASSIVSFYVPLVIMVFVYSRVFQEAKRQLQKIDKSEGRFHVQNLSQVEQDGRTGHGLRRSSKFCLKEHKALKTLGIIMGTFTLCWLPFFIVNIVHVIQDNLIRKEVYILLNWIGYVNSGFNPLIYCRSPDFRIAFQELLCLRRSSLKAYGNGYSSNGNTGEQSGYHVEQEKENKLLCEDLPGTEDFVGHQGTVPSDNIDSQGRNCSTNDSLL
Chain of Beta-1 adrenergic receptor (P08588 whole entry): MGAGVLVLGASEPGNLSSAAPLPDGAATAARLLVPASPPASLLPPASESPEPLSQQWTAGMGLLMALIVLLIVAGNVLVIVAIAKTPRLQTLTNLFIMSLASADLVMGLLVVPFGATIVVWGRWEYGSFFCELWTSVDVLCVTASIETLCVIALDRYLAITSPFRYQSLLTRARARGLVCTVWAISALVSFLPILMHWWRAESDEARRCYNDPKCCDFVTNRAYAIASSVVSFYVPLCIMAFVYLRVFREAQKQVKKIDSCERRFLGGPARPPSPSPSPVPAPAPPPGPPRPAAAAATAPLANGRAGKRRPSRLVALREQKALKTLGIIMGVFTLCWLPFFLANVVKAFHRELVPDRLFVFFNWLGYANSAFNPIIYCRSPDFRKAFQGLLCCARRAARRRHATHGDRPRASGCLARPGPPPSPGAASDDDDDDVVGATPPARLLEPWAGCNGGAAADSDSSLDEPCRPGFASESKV

Row | Ki [1] [nM] | Ki [3] [µM] | Ki [4] [µM] | Structure (SMILES) | other results
1 | 59.2 | 26.9 | 39.8 | CNCC(O)COc1ccc(S(=O)(=O)NCCc2ccccc2)cc1 (stereo unspecified) | Activity [2]: Active
2 | 22.1 | > 100 | > 100 | CCNCC(O)COc1ccc(C(=O)NCCc2ccc(S(N)(=O)=O)cc2)cc1 (stereo unspecified) | 
3 | 83.1 | > 100 | > 100 | CC(C)(C)NCC(O)COc1ccc(C(=O)NCCc2ccc(S(N)(=O)=O)cc2)cc1 (stereo unspecified) | 
4 | 1.7 | > 100 | > 100 | CNCC(O)COc1ccc(C(=O)NCCc2ccc(S(N)(=O)=O)cc2)cc1 (stereo unspecified) | 
5 | 7.4 | > 100 | > 100 | CCCNCC(O)COc1ccc(C(=O)NCCc2ccc(S(N)(=O)=O)cc2)cc1 (stereo unspecified) | 
6 | 7 | > 100 | > 100 | Cl.NS(=O)(=O)c1ccc(CCNC(=O)c2ccc(OCC(O)CN3CCOCC3)cc2)cc1 (stereo unspecified) | Activity [2]: Active; Activity [5]: 3.25 - 3.67 mmHg
7 | 126 | > 100 | > 100 | CNCC(O)COc1ccc(S(=O)(=O)N2CCN(C)CC2)cc1 (stereo unspecified) | 
8 | 95.4 | 13.5 | 5.01 | CNCC(O)COc1ccc(S(=O)(=O)NC(C)(C)C)cc1.Cl (stereo unspecified) | Activity [2]: Active; Activity [5]: 3.25 - 3.67 mmHg
9 | 23.4 | > 100 | > 100 | CNCC(O)COc1ccc(S(N)(=O)=O)cc1 (stereo unspecified) | 
10 | 6 | > 100 | > 100 | CC(C)N(CC(O)COc1ccc(C(=O)NCCc2ccc(S(N)(=O)=O)cc2)cc1)C(C)C (stereo unspecified) | 
11 | 93.1 | 79.4 | > 100 | CNCC(O)COc1ccc(S(=O)(=O)NCc2ccccc2)cc1 (stereo unspecified) | 
12 | 84.6 | 6.61 | 28.2 | CNCC(O)COc1ccc(S(=O)(=O)NCCOc2ccccc2)cc1 (stereo unspecified) | 
13 | 5.8 | > 100 | > 100 | NS(=O)(=O)c1ccc(CCNC(=O)c2ccc(OCC(O)CNCCO)cc2)cc1 (stereo unspecified) | 
14 | 47.6 | 10.5 | 31.6 | CNCC(O)COc1ccc(S(=O)(=O)NC(C)C)cc1.Cl (stereo unspecified) | Activity [2]: Active; Activity [5]: 3.25 - 3.67 mmHg
15 | 74.7 | > 100 | > 100 | NS(=O)(=O)c1ccc(CCNC(=O)c2ccc(OCC(O)CNCc3ccccc3)cc2)cc1 (stereo unspecified) | 
16 | 61.8 | > 100 | > 100 | CC(C)NCC(O)COc1ccc(C(=O)NCCc2ccc(S(N)(=O)=O)cc2)cc1 (stereo unspecified) | 
17 |  |  |  | CC(C)(C)NC[C@H](O)COc1nsnc1N1CCOCC1 [TIMOLOL] | Activity [6]: inactive; Activity [7]: 5.73 mmHg; Activity [8]: 3.54 mmHg; Activity [9]: 5 mmHg; Activity [10]: inactive
18 | 53.6 | > 100 | > 100 | CCC(C)NCC(O)COc1ccc(C(=O)NCCc2ccc(S(N)(=O)=O)cc2)cc1 (stereo unspecified) | 
19 | 108 | 15.5 | 30.2 | CNCC(O)COc1ccc(S(=O)(=O)NC(C)C(C)C)cc1 (stereo unspecified) | 
